Laboratory results taken from ChEMBL document CHEMBL1128803 (Bioorg Med Chem Lett, 1995).

How the values were obtained:
Type in all cases: protein assay
[1] = molecular target: Phosphodiesterase 4 (Mus musculus, UniProt Q8VBU5+Q3UEI1+O89084+Q01063); assay: Inhibition of [3H]rolipram binding to Phosphodiesterase 4 (PDE IV)
[2] = molecular target: Phosphodiesterase 3 (Homo sapiens) (UniProt Q14432+Q13370); assay: Inhibition of Phosphodiesterase 3 (PDE III) at 100 uM
[3] = molecular target: Phosphodiesterase 4 (Homo sapiens, UniProt P27815+Q08499+Q07343+Q08493); assay: Inhibition of Phosphodiesterase 4

Compound	IC50 [1] [µM]	inhibition [2] [%]	IC50 [3] [µM]
COc1ccc(/C=C2\C(=O)N(C)c3ccc(Br)cc32)cc1OC1CC2CCC1C2 (stereo unspecified)	57	-7	3.6
COc1ccc(/C=C2/C(=O)N(C)c3ccc([N+](=O)[O-])cc32)cc1OC1CC2CCC1C2 (stereo unspecified)	66	25	7.1
COc1ccc(/C=C2\C(=O)N(C)c3ccc(Cl)cc32)cc1OC1CC2CCC1C2 (stereo unspecified)	58	-9	3.4
COc1ccc(C2CNC(=O)C2)cc1OC1CCCC1 (stereo unspecified)	–	23	–

Next, values leading:

IC50 [1] [µM]	inhibition [2] [%]	IC50 [3] [µM]	Compound
4.6	42	0.48	COc1ccc(/C=C2/C(=O)Nc3ccccc32)cc1OC1CC2CCC1C2 (stereo unspecified)
50	17	1.7	COc1ccc(/C=C2\C(=O)Nc3ccc(Br)cc32)cc1OC1CC2CCC1C2 (stereo unspecified)
3.2	–	3.7	COc1ccc(/C=C2\C(=O)Nc3ccccc32)cc1OC1CC2CCC1C2 (stereo unspecified)
62	18	1.2	COc1ccc(/C=C2\C(=O)Nc3ccc([N+](=O)[O-])cc32)cc1OC1CC2CCC1C2 (stereo unspecified)
